According to ChEMBL document CHEMBL6121069, “A Medicinal Chemistry Perspective on Protein Tyrosine Phosphatase Nonreceptor Type 2 in Tumor Immunology” (J Med Chem, 2025):
pEC50, pIC50, pKd, pKi: −log10 of the molar value. Each block holds one molecule with its values, some of them ahead of it.

What was measured:
[1] = target: T1, Tyrosine-protein phosphatase non-receptor type 2 (Homo sapiens, UniProt P17706)
T1 sequence (P17706 whole entry): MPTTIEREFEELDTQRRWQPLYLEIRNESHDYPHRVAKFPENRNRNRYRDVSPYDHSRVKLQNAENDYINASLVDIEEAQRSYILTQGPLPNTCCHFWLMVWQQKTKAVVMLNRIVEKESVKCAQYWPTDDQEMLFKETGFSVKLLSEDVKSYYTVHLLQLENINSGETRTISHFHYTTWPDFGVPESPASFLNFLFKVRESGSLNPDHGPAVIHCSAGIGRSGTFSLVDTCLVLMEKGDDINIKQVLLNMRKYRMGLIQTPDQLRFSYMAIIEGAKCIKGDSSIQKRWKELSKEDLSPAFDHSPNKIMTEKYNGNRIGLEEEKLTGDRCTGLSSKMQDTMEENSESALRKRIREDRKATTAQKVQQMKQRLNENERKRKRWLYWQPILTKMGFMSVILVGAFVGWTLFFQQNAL
Description: Inhibition of full length human recombinant PTPN2 (1 to 387 residues)

[2] = test system: B16-F10; assay: cells; conditions: Mus musculus
Description: Antiproliferative activity against mouse B16-F10 cells assessed as inhibition of cell growth

[3] = cells; conditions: Homo sapiens, B16
Description: Inhibition of PTPN2/PTPN1 (unknown origin) in mouse B16 cells assessed as inhibition of IFNgamma-mediated STAT1 phosphorylation

[4] = target: T1, Tyrosine-protein phosphatase non-receptor type 2; remark: listed apart in the source
Description: Inhibition of PTPN2 (unknown origin) by mobility shift assay

[5] = test system: B16-F10; assay: cells; conditions: Mus musculus; remark: listed apart in the source
Description: Antiproliferative activity against mouse B16-F10 cells

[6] = target: T1, Tyrosine-protein phosphatase non-receptor type 2; remark: listed apart in the source
Description: Inhibition of full length human recombinant PTPN2 by mobility shift assay

[7] = target: T1, Tyrosine-protein phosphatase non-receptor type 2; remark: listed apart in the source
Description: Inhibition of full length human recombinant PTPN2 using DiFMUP as substrate

[8] = target: T2, Tyrosine-protein phosphatase non-receptor type 1 (Homo sapiens, UniProt P18031)
T2 sequence (P18031 whole entry): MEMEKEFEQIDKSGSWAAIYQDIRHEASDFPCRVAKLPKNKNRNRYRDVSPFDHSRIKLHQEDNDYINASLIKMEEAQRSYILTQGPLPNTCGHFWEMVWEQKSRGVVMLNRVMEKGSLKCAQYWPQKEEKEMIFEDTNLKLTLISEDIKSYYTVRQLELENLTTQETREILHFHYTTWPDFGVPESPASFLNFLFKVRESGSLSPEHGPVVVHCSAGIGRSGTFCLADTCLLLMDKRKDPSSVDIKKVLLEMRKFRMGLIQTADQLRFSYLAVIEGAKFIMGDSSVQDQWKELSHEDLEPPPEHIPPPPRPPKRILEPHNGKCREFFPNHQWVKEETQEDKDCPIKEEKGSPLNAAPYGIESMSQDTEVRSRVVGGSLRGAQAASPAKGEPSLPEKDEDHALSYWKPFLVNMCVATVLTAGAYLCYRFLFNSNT
Description: Inhibition of PTP1B (unknown origin)

[9] = target: T1, Tyrosine-protein phosphatase non-receptor type 2; remark: listed apart in the source
Description: (§1) Inhibition of wild type FLAG-tagged PTPN2 (unknown origin) extracted from Escherichia coli BL21 (DE3) by micro-plate reader assay

[10] = target: T1, Tyrosine-protein phosphatase non-receptor type 2; remark: listed apart in the source
Description: as §1

[11] = target: T1, Tyrosine-protein phosphatase non-receptor type 2; remark: listed apart in the source
Description: Inhibition of His-tagged PTPN2 (unknown origin) by mobility shift assay

[12] = target: T2, Tyrosine-protein phosphatase non-receptor type 1; remark: listed apart in the source
Description: Inhibition of full length His-tagged PTP1B (unknown origin) by mobility shift assay

[13] = target: Protein cereblon/Tyrosine-protein phosphatase non-receptor type 1 (Homo sapiens, UniProt P18031+Q96SW2); conditions: hek293t
Description: PROTAC activity at PTP1B/CRBN in HEK293T cells assessed as maximal protein degradation at 10 uM measured for 48 hrs by Western blot analysis relative to control

[14] = target: T3, Protein cereblon/Tyrosine-protein phosphatase non-receptor type 2 (Homo sapiens, UniProt P17706+Q96SW2); conditions: hek293t
Description: PROTAC activity at PTPN2/CRBN in HEK293T cells assessed as protein degradation measured for 48 hrs by Western blot analysis

[15] = target: T2, Tyrosine-protein phosphatase non-receptor type 1; remark: listed apart in the source
Description: Binding affinity to PTP1B (unknown origin) assessed as inhibition constant

[16] = target: T2, Tyrosine-protein phosphatase non-receptor type 1; remark: listed apart in the source
Description: Inhibition of PTP1B (unknown origin) by mobility shift assay

[17] = target: T2, Tyrosine-protein phosphatase non-receptor type 1; remark: listed apart in the source
Description: Inhibition of C-terminal recombinant PTP1B (1 to 405 residues) (unknown origin) using pNPP as substrate incubated for 30 mins by fluorescence based analysis

[18] = target: T1, Tyrosine-protein phosphatase non-receptor type 2; remark: listed apart in the source
Description: Binding affinity to PTPN2 (unknown origin) assessed as dissociation constant by SPR assay

[19] = target: T3, Protein cereblon/Tyrosine-protein phosphatase non-receptor type 2; conditions: hek293t; remark: listed apart in the source
Description: PROTAC activity at PTPN2/CRBN in HEK293T cells assessed as induction of PTPN2 degradation incubated for 24 hrs by Nan-glo HiBiT lytic assay

[20] = test system: B16-F10; assay: animal or person; conditions: Mus musculus, B16-F10, 360 h, read-out: TGI
[21] = target: T1, Tyrosine-protein phosphatase non-receptor type 2; remark: listed apart in the source
Description: Inhibition of PTPN2 (unknown origin)

[22] = target: T1, Tyrosine-protein phosphatase non-receptor type 2; remark: listed apart in the source
Description: Binding affinity to PTPN2 (unknown origin) assessed as inhibition constant

[23] = test system: B16-F10; assay: cells; conditions: Mus musculus; remark: listed apart in the source
Description: Antiproliferative activity against mouse B16-F10 cells assessed as reduction in cell growth

[24] = target: T2, Tyrosine-protein phosphatase non-receptor type 1; remark: listed apart in the source
Description: Inhibition of PTP1B (unknown origin) using para-nitrophenol phosphate substrate incubated for 30 mins by fluorescence based analysis

[25] = target: T1, Tyrosine-protein phosphatase non-receptor type 2; remark: listed apart in the source
Description: Inhibition of human PTPN2 using DiFMUP as substrate by fluorescence based analysis

[26] = target: T2, Tyrosine-protein phosphatase non-receptor type 1; remark: listed apart in the source
Description: Binding affinity to PTP1B (unknown origin) using pNPP as substrate incubated for 60 mins by fluorescence based analysis

[27] = target: T1, Tyrosine-protein phosphatase non-receptor type 2; remark: listed apart in the source
Description: Inhibition of PTPN2 (unknown origin) using pNPP as substrate measured for 60 mins by fluorescence based analysis

[28] = target: T1, Tyrosine-protein phosphatase non-receptor type 2; remark: listed apart in the source
Description: Inhibition of PTPN2 (unknown origin) using DiFMUP as substrate pre-incubated for 15 mins and measured for 30 mins by fluorescence based analysis

[29] = target: T1, Tyrosine-protein phosphatase non-receptor type 2; remark: listed apart in the source
Description: Inhibition of PTPN2 (unknown origin) using DiFMUP as substrate incubated for 30 mins by fluorescence based analysis

T3 sequence (Q96SW2 whole entry, one chain of several): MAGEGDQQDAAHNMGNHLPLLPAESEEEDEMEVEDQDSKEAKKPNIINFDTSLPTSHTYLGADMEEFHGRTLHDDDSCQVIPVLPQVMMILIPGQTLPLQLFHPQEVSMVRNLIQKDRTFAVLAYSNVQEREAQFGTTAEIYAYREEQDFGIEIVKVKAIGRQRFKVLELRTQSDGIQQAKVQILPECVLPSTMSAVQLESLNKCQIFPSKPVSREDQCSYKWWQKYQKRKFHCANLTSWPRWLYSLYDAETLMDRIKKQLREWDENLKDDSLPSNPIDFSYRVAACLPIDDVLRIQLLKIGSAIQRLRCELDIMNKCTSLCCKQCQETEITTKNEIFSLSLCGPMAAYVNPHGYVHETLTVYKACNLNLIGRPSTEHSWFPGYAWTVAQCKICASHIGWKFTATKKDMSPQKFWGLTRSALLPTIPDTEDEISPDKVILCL
Chain of Protein cereblon/Tyrosine-protein phosphatase non-receptor type 1 (Q96SW2 whole entry, one chain of several): as above

SMILES: CC(C)CC1CCN(C2CCN(Cc3cc(O)c(N4CC(=O)NS4(=O)=O)c(F)c3)C2)C1 (configuration not stated)
pIC50 [1]: 7.18 | pIC50 [2]: 5.07

SMILES: CCCC1CCN(C2CCN(Cc3cc(O)c(N4CC(=O)NS4(=O)=O)c(F)c3)C2)C1 (configuration not stated)
pIC50 [1]: 7.19 | pIC50 [2]: 4.71

SMILES: CC(C)CCN[C@@H]1CCc2cc(O)c(N3CC(=O)NS3(=O)=O)c(F)c2C1 [OSUNPROTAFIB]
pEC50 [3]: 6.74 | pIC50 [4]: 8.55 | pIC50 [5]: 7.19

pIC50 [6]: 7.80
SMILES: CC(C)CCN[C@@H]1COc2cc(O)c(N3CC(=O)NS3(=O)=O)c(F)c2C1

pIC50 [6]: 7.82
SMILES: O=C1CN(c2c(O)cc3c(c2F)CC(CNCCC(F)F)N3)S(=O)(=O)N1 (configuration not stated)

pIC50 [6]: 8.87
SMILES: CC(C)CCN[C@@H]1CSc2cc(O)c(N3CC(=O)NS3(=O)=O)c(F)c2C1

SMILES: Cc1cnnc(NCc2cc(O)c(N3CC(=O)NS3(=O)=O)c(F)c2)c1
pIC50 [7]: 8.40 | pIC50 [5]: 6.39

pIC50 [8]: 3.95 | pIC50 [9]: 3.70
SMILES: [2H]ON1C(=O)c2cccc3c([N+](=O)[O-])ccc(c23)C1=O

pIC50 [6]: 8.05
SMILES: O=C1CN(c2c(O)cc3c(c2F)C[C@H](NCCCC(F)F)CO3)S(=O)(=O)N1

pIC50 [10]: 6.02
SMILES: CC(C)(C)C(=O)Nc1ccc2c(c1)C(=O)C(=O)c1ccccc1-2

pIC50 [11]: 9.00 | pIC50 [12]: 9.00
SMILES: COc1ccc2cc(O)c(N3CC(=O)NS3(=O)=O)c(F)c2c1 [TEGEPROTAFIB]

DC50 [13]: 2000 nM | DC50 [14]: 571 nM
SMILES: Cc1ncsc1-c1ccc([C@H](C)NC(=O)[C@@H]2C[C@@H](O)CN2C(=O)[C@@H](NC(=O)CCCCCCCCCCNC(=O)Cn2cc(-c3ccc4cc(O)c(N5CC(=O)NS5(=O)=O)c(F)c4c3)cn2)C(C)(C)C)cc1

pIC50 [6]: 8.59
SMILES: O=C1CN(c2c(O)cc3c(c2F)C[C@H](NCCCC(F)F)CS3)S(=O)(=O)N1

pKi [15]: 6.77
SMILES: CC(C)C[C@@H]1NC(=O)[C@H](Cc2ccc(OC(F)(C(=O)O)C(=O)O)cc2)NC(=O)[C@H](CCC(=O)O)NC(=O)[C@H](CC(=O)O)NC(=O)[C@H](C)NC(=O)[C@H](CC(=O)O)NC(=O)SC[C@H](C(N)=O)NC1=O

pIC50 [11]: 9.24 | pIC50 [12]: 9.20
SMILES: CC(C)CCOc1ccc2cc(O)c(N3CC(=O)NS3(=O)=O)c(F)c2c1

SMILES: O=C1CN(c2c(O)cc(CNc3ncc[nH]3)cc2F)S(=O)(=O)N1
pIC50 [7]: 8.00 | pIC50 [5]: 6.80

DC50 [13]: 13100 nM | DC50 [14]: 217 nM
SMILES: Cc1ncsc1-c1ccc([C@H](C)NC(=O)[C@@H]2C[C@@H](O)CN2C(=O)[C@@H](NC(=O)CCCCCNC(=O)Cn2cc(-c3ccc4cc(O)c(N5CC(=O)NS5(=O)=O)c(F)c4c3)cn2)C(C)(C)C)cc1

pIC50 [11]: 9.00 | pIC50 [12]: > 9.00
SMILES: CC(C)CCNc1ccc2cc(O)c(N3CC(=O)NS3(=O)=O)c(F)c2c1

SMILES: CC(C)CCN[C@H]1CCc2cc(O)c(N3CC(=O)NS3(=O)=O)c(F)c2C1
pIC50 [4]: 8.00 | pIC50 [16]: 8.00 | pIC50 [5]: 6.00

pIC50 [8]: 7.10
SMILES: COc1ccc(-c2ccc[nH]2)cc1N1CC(=O)NS1(=O)=O

pIC50 [8]: 4.57 | pIC50 [17]: 5.11
SMILES: C=C(C)[C@@H]1CC[C@@H](C)[C@@H]2CCC(C)=C[C@@H]21

pKd [18]: 7.28 | DC50 [19]: 44 nM
SMILES: Cn1c(=O)n(C2CCC(=O)NC2=O)c2ccc(C3CCN(C(=O)Nc4cccc(CS(=O)(=O)N5CC[C@H](Nc6cccc(-c7sc(C(=O)O)c(OCC(=O)O)c7Cl)c6)CC5(C)C)c4)CC3)cc21 (some centres not stated)

SMILES: Cc1cccc(NCc2cc(F)c(N3CC(=O)NS3(=O)=O)c3[nH]ncc23)n1
pIC50 [7]: 6.70 | pIC50 [5]: < 4.82

pIC50 [9]: 5.42
SMILES: O=C1/C(=N\Nc2ccc(S(=O)(=O)O)cc2)C(c2ccc([N+](=O)[O-])cc2)=NN1c1ccccc1

SMILES: CC1(C)C[C@@H](Nc2cccc(-c3sc(C(=O)O)c(OCC(=O)O)c3Cl)c2)CCN1S(=O)(=O)Cc1cccc(NC(=O)N2CCC(c3ccc4c5c(cccc35)C(=O)N4[C@H]3CCC(=O)NC3=O)CC2)c1
DC50 [19]: 44 nM | inhibition in vivo at 10 mg/kg [20]: 98%

pIC50 [8]: 8.08 | pIC50 [21]: 7.94
SMILES: O=C1CN(c2c(O)cc3ccccc3c2F)S(=O)(=O)N1

DC50 [13]: 758 nM | DC50 [14]: 77 nM
SMILES: Cc1ncsc1-c1ccc([C@H](C)NC(=O)[C@@H]2C[C@@H](O)CN2C(=O)[C@@H](NC(=O)CCCCCCCNC(=O)Cn2cc(-c3ccc4cc(O)c(N5CC(=O)NS5(=O)=O)c(F)c4c3)cn2)C(C)(C)C)cc1

DC50 [13]: 142 nM | DC50 [14]: 94 nM
SMILES: Cc1ncsc1-c1ccc([C@H](C)NC(=O)[C@@H]2C[C@@H](O)CN2C(=O)[C@@H](NC(=O)CCCCCCNC(=O)Cn2cc(-c3ccc4cc(O)c(N5CC(=O)NS5(=O)=O)c(F)c4c3)cn2)C(C)(C)C)cc1

pKi [15]: 7.80 | pKi [22]: 7.49
SMILES: O=C(O)COc1c(C(=O)O)sc(-c2cccc(N(C(=O)c3ccccc3)C3CCCCC3)c2)c1Br

SMILES: Cn1ccnc1NCc1cc(O)c(N2CC(=O)NS2(=O)=O)c(F)c1
pIC50 [7]: 8.22 | pIC50 [5]: 6.74

SMILES: CC(C)(O)CCOc1ccc2cc(O)c(N3CC(=O)NS3(=O)=O)c(F)c2c1
pIC50 [11]: 9.22 | pIC50 [23]: 5.24

SMILES: O=C1CN(c2c(O)cc3c(c2F)C[C@H](NCCCC(F)F)CC3)S(=O)(=O)N1
pIC50 [6]: > 10.00 | pIC50 [21]: > 9.00 | pIC50 [5]: > 7.30

pIC50 [24]: 6.88 | pIC50 [25]: 7.86
SMILES: C=C(C)C#COc1cc(C(N)=O)cc2c(Br)c(C(F)(F)P(=O)(O)O)sc12

pIC50 [9]: 5.19
SMILES: CCN(CN=O)c1ccc(O)c(O)c1

SMILES: CCc1ccc(C(=O)NCCCC[C@H](NC(=O)[C@H](Cc2ccc(C(F)(F)P(=O)(O)O)cc2)NC(=O)[C@@H](CC(=O)COC2CC(C)CCC2C(C)C)Cc2ccccc2)C(N)=O)cc1 (some centres not stated)
pKi [26]: 7.47 | pKi [15]: 7.47 | pIC50 [27]: 8.04 | pIC50 [28]: 8.04 | pKi [22]: 8.37

pIC50 [29]: 6.55
SMILES: NC(=O)c1cc2cc(Br)c(C(F)(F)P(=O)(O)O)cc2s1

pIC50 [8]: 3.33 | pIC50 [9]: 3.43
SMILES: O=c1c2ccccc2nnn1O

pIC50 [8]: 7.40
SMILES: O=P(O)(O)C(F)(F)c1ccc(CC(Cc2ccc(-c3ccccc3)cc2)(c2ccccc2)n2nnc3ccccc32)cc1 (configuration not stated)

pIC50 [8]: 4.11
SMILES: Cc1c(O[C@@H]2O[C@H](CO[C@@H]3OC[C@@H](O)[C@H](O)[C@H]3O)[C@@H](O)[C@H](O)[C@H]2O)cc2c(c1O)C(=O)c1ccc(O)c(O)c1C2=O

pIC50 [29]: 5.82
SMILES: O=P(O)(O)C(F)(F)c1cc2sc(CO)cc2cc1Br
